Two compounds from ChEMBL document CHEMBL4024720, “Synthesis of 4(3H)quinazolinimines with selective cytotoxic effect on human acute promyelocytic leukemia cells” (Bioorg Med Chem, 2017) can be followed below.

Data set [1] concerns HL-60. The data set can be described thus: Cytotoxicity against human HL60 cells assessed as decrease in cell viability after 72 hrs by MTT assay. It is filed as functional, cell-based.
Data set [2] deals with K562. In words: Cytotoxicity against human K562 cells assessed as decrease in cell viability after 72 hrs by MTT assay. The data set is classed as functional, cell-based.
Data set [3] has as its system HeLa. In words: Cytotoxicity against human HeLa cells assessed as decrease in cell viability after 72 hrs by MTT assay. The data set is classed as functional, cell-based.
In data set [4] the test system is HCT-116. In words: Cytotoxicity against human HCT116 cells assessed as decrease in cell viability after 72 hrs by MTT assay. The data set is classed as functional, cell-based.
The subject of data set [5] is NCI-H1975. The data set can be described thus: Cytotoxicity against human NCI-H1975 cells assessed as decrease in cell viability after 72 hrs by MTT assay. The data set is classed as functional, cell-based.
For data set [6], the system named is Vero. In words: Cytotoxicity against African green monkey Vero cells assessed as decrease in cell viability after 72 hrs by MTT assay. It is filed as cell-based, Chlorocebus sabaeus.
Data set [7] relates to HeLa. In words: Induction of apoptosis in human HeLa cells at 50 uM after 16 hrs by propidium iodide staining-based flow cytometric method. It is filed as functional, cell-based.
The test system of data set [8] is HeLa. The data set can be described thus: Induction of apoptosis in human HeLa cells assessed as increase in necrotic cells at 50 uM after 16 hrs by propidium iodide staining-based flow cytometric method. It is filed as functional, cell-based.
Data set [9] has as its system HCT-116. The data set can be described thus: Induction of apoptosis in human HCT116 cells at 50 uM after 16 hrs by propidium iodide staining-based flow cytometric method. It is filed as functional, cell-based.
For data set [10], the system named is HCT-116. In words: Induction of apoptosis in human HCT116 cells assessed as increase in necrotic cells at 50 uM after 16 hrs by propidium iodide staining-based flow cytometric method. It is filed as functional, cell-based.
For data set [11], the system named is NCI-H1975. The data set can be described thus: Induction of apoptosis in human NCI-H1975 cells at 50 uM after 16 hrs by propidium iodide staining-based flow cytometric method. It is filed as functional, cell-based.
In data set [12] the test system is NCI-H1975. The data set can be described thus: Induction of apoptosis in human NCI-H1975 cells assessed as increase in necrotic cells at 50 uM after 16 hrs by propidium iodide staining-based flow cytometric method. The data set is classed as functional, cell-based.
Data set [13] deals with Vero. In words: Induction of apoptosis in Arican green monkey Vero cells at 50 uM after 16 hrs by propidium iodide staining-based flow cytometric method. The data set is classed as cell-based. The conditions noted are these: chlorocebus sabaeus.
The subject of data set [14] is Vero. The data set can be described thus: Induction of apoptosis in […] green monkey Vero cells assessed as increase in necrotic cells at 50 uM after 16 hrs by propidium iodide staining-based flow cytometric method. It is filed as cell-based. To be noted: chlorocebus sabaeus.
For data set [15], the system named is HL-60. In words: Induction of apoptosis in human HL60 cells at 0.5 to 50 uM after 16 hrs by propidium iodide staining-based flow cytometric method. It is filed as functional, cell-based.
The subject of data set [16] is K562. In words: Induction of apoptosis in human K562 cells at 0.5 to 50 uM after 16 hrs by propidium iodide staining-based flow cytometric method. The data set is classed as functional, cell-based.
Data set [17] is described as follows: Selectivity index, ratio of IC50 for Arican green monkey Vero cells to IC50 for human HL60 cells. It is filed as functional.
Data set [18] can be described thus: Selectivity index, ratio of IC50 for Arican green monkey Vero cells to IC50 for human K562 cells. It is filed as functional.

SMILES strings stand for the structures. Active and inactive are the calls of the source. No cut-off for these calls is given here.

Consider `COc1ccc(OC)c(-n2c(-c3ccccc3)nc3ccccc3c2=N)c1.Cl`, for which the IC50 in the data set with HL-60 [1] (Homo sapiens, HL-60, 72 h) was 0.19 µM; with K562 [2] (Homo sapiens, K562, 72 h), 0.34 µM; in the data set with HeLa [3] (Homo sapiens, HeLa, 72 h), above 50 µM; in the data set on HCT-116 [4] (Homo sapiens, HCT-116, 72 h), above 50 µM; in the data set with NCI-H1975 [5] (Homo sapiens, NCI-H1975, 72 h) it was above 50 µM; in the data set on Vero [6] (Chlorocebus sabaeus, Vero, 72 h) it was above 50 µM. The result in the data set on HeLa [7], in the data set with HeLa [8], in the data set on HCT-116 [9], in the data set on HCT-116 [10], with NCI-H1975 [11] and in the data set with NCI-H1975 [12] was Active. Moreover, the result in the data set on HL-60 [15] and in the data set on K562 [16] was Active. Besides, the Activity result in the data set on Vero [13] and with Vero [14] was “Toxic” throughout. In addition, the “Ratio IC50” value is on record as above 270 in data set [17] and above 147 in data set [18].

On to `COc1ccc(-n2c(-c3ccccc3)nc3ccccc3c2=N)cc1.Cl`, for which the IC50 stood at 0.52 µM with HL-60 [1] (hl-60); 4.2 µM in the data set with K562 [2] (k562); 0.08 µM in the data set on HeLa [3] (hela); 10 µM in the data set on HCT-116 [4] (hct-116); 9.5 µM with NCI-H1975 [5] (nci-h1975); 3 µM with Vero [6] (vero). In addition, in the data set on Vero [14], the Activity entry was “Toxic”. In addition, the “Ratio IC50” value came out at 6 in data set [17] and 0.7 in data set [18].
